Data as given in US20070155736A1, “FLUORINATED PHNO AND ANALOGUES THEREOF” (Clara Inc., priority 2005, published 2007).
Counter-ions that a name gives are not always drawn.

Legend:
D2^High receptors = D2^High receptors (Homo sapiens, UniProt P14416); settings: human volunteer, PET
Description: After a brief transmission scan for attenuation correction of the emission scans, emission scans are obtained every minute for the first 15 min, and then every 5 min until the end of the study at 75 min. The PET scanning is conducted by using a dedicated brain scanner, GEMS PC2048-15B PET camera (General Electric Medical Systems) that produces fifteen 6.5 mm-thick slices with a resolution of 5-6 mm. The volunteer is scanned lying down and the head fixed by using a thermoplastic face mask. For accurate anatomical position of the various brain regions, each volunteer receives an MRI (magnetic resonance imaging) scan. The regions of interest are transferred to the PET images by using Alice™ 3.1 software.
The regions of interest include the head of the caudate nucleus. […] Several hours after the initial injection of (+)-[^18F]-PHNO, a second injection of (+)-[^18F]-PHNO is given intravenously at the same time as a very low dose of non-radioactive (+)PHNO, (+)-F-PHNO or a very low dose of apomorphine. […] The density of the D2^High sites in the caudate nucleus that are labeled by (+)-[^18F]-PHNO is calculated, knowing the specific activity of the tracer injected and the amount of radioactivity detected by the positron imaging camera.

[1] = target: T1, high-affinity state of dopamine D2 receptors (Rattus norvegicus, UniProt P61169); test: Biological potency on the high-affinity state of dopamine D2 receptors in rat homogenized striatal tissue; assay type: binding; settings: [3H]-domperidone
T1 construct: from tissue; host or cells: rat striatum, homogenized
Source text: (§1) It is herein submitted that the short-term use of tracer doses of a compound of the invention, wherein R^1 is C1-6alkyl in which one hydrogen atom on the alkyl chain in replaced with radioactive fluoro, in radioimaging procedures will be of diagnostic and therapeutic importance in dopamine-related disorders.

rat cloned D3 receptor = target: T2, rat cloned D3 receptor (Rattus norvegicus, UniProt P19020); test: Binding to rat cloned D3 receptor using 1.6 nM [3H]-raclopride
T2 construct: expressed in transfected cells
Source text: as §1

[2] = in vivo; cited from earlier work

T2 sequence (P19020 whole entry): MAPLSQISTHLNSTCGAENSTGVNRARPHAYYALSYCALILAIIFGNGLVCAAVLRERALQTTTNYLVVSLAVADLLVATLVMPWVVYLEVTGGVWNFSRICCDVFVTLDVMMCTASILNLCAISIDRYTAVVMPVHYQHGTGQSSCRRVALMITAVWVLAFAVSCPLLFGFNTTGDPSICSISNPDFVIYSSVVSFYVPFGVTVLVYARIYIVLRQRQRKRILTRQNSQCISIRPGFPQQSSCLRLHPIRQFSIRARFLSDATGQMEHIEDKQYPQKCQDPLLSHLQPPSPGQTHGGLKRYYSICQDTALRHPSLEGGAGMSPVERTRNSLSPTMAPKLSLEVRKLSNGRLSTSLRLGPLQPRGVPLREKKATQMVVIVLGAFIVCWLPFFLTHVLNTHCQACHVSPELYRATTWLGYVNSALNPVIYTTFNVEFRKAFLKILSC
T1 sequence (P61169 whole entry): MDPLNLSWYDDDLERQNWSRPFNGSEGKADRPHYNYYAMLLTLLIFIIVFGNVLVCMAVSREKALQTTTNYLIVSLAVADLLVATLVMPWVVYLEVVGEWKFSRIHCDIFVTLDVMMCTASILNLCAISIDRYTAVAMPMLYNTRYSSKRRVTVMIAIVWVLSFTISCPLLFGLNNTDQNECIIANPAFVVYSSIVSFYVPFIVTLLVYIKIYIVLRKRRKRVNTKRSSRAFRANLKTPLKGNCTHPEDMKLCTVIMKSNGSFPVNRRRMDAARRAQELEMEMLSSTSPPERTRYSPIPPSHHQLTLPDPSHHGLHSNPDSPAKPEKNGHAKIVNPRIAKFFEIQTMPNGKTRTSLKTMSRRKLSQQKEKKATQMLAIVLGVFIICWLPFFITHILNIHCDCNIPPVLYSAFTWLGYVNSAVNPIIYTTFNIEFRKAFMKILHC
Chain of D2^High receptors (P14416 whole entry): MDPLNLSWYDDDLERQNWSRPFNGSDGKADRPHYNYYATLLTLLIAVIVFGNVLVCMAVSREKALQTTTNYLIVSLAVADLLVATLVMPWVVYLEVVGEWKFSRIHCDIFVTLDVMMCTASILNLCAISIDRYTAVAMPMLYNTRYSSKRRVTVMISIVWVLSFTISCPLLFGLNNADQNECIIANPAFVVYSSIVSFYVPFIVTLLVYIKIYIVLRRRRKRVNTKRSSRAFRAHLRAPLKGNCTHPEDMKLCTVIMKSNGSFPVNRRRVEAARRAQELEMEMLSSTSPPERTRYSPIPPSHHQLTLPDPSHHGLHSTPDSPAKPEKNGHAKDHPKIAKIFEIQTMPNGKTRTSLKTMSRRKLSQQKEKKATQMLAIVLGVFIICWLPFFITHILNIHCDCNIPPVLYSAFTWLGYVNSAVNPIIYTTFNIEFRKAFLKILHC

| Structure (SMILES) | Kd [1] [nM] | Kd (rat cloned D3 receptor) [nM] | also measured |
| --- | --- | --- | --- |
| Oc1ccc2c(c1)[C@H]1OCCN(CCC[18F])[C@@H]1CC2 [(+)-[^18F]-PHNO, [^18F]-(4aR,10bR)-4-(3-fluoropropyl)-3,4,4a,5,6,10b-hexahydro-2H-naphtho[1,2-b][1,4]oxazin-9-ol] | – | – | peak emission in the caudate nucleus (D2^High receptors; at 10 minutes after i.v. injection): about 0.22 % of the injected dose per kg; time of peak emission in the caudate nucleus after intravenous injection (D2^High receptors; bolus plus infusion i.v.): 10 min |
| Oc1ccc2c(c1)[C@H]1OCCN(CCF)[C@@H]1CC2 [(+)-F-EHNO, (4aR,10bR)-4-(2-Fluoroethyl)-3,4,4a,5,6,10b-hexahydro-2H-naphtho[1,2-b][1,4]oxazin-9-ol Hydrochloride] | 1.7 ± 0.3 | 1.7 | – |
| Oc1ccc2c(c1)[C@H]1OCCN(CCCF)[C@@H]1CC2 [(+)-F-PHNO, (4aR,10bR)-4-(3-Fluoropropyl)-3,4,4a,5,6,10b-hexahydro-2H-naphtho[1,2-b][1,4]oxazin-9-ol Hydrochloride] | 0.46 ± 0.06 | 0.38 | – |
| Oc1ccc2c(c1)[C@H]1OCCN(CCCCF)[C@@H]1CC2 [(+)-F-But-HNO, (4aR,10bR)-4-(4-Fluorobutyl)-3,4,4a,5,6,10b-hexahydro-2H-naphtho[1,2-b][1,4]oxazin-9-ol Hydrochloride] | 20 ± 8.7 | 34 | – |
| Oc1ccc2c(c1)[C@H]1OCCN(CCCF)[C@@H]1CC2 (as salt: hydrochloride) [(+)-F-PHNO, (4aR,10bR)-4-(3-Fluoropropyl)-3,4,4a,5,6,10b-hexahydro-2H-naphtho[1,2-b][1,4]oxazin-9-ol Hydrochloride] | – | – | melting point: 253 to 255 °C |
| Oc1ccc2c(c1)[C@H]1OCCN(CCCCCF)[C@@H]1CC2 [(+)-F-Pent-HNO, (4aR,10bR)-4-(5-Fluoropentyl)-3,4,4a,5,6,10b-hexahydro-2H-naphtho[1,2-b][1,4]oxazin-9-ol Hydrochloride] | 25 ± 4 | 54 | – |
| CCCN1CCO[C@@H]2c3cc(O)ccc3CC[C@H]21.Cl [(+)PHNO, (+)-(4aR,10bR)-3,4,4a,5,6,10b-hexahydro-4-propyl-2H-naphth[1,2-b][1,4]oxazin-9-ol HCl] | – | – | effect in Parkinson's disease [2]: effective in alleviating Parkinson's disease |
| Oc1ccc2c(c1)[C@H]1OCCN(CCCCCCF)[C@@H]1CC2 [(+)-F-Hex-HNO, (4aR,10bR)-4-(6-Fluorohexyl)-3,4,4a,5,6,10b-hexahydro-2H-naphtho[1,2-b][1,4]oxazin-9-ol Hydrochloride] | 52 ± 27 | 45 | – |
